The values below come from patent US9133115B2 (ACHILLION PHARMACEUTICALS, INC., priority 2008, dated 2015).

Some results are limits rather than exact numbers.

Usually EC50 stands for the concentration at which the effect is half-maximal.

For the first assay, the system named is HCV replicon. Put plainly: HCV replicon replication assay (NPT ELISA) in Huh-7 replicon-containing cells. The conditions noted are these: Hepatitis C virus, 72 h; HCV replicon in Huh-7 cells, three days incubation; read-out: EC50. It is filed as cell-based. The method, boiled down:
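Replication was scored by capture ELISA of neomycin phosphotransferase, whose level tracks replicon replication, after graded compound treatment. The cells were Huh-7 harbouring an HCV-IRES/neo/EMCV-IRES/NS3–NS5B/3′-NTR replicon, plated at 6000-7500 cells/well and dosed 24 h later at 60-70% confluence; interferon alpha was the positive control.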
For orientation: In antiviral work, replicon cells carry a viral genome segment that copies itself.
In the case of `C=C[C@@H]1C[C@]1(NC(=O)[C@@H]1C[C@@H](NC(=O)c2cc(-c3ccccc3)nc3ccccc23)CN1C(=O)[C@@H](CC(=O)N1CCC(F)(F)CC1)C(C)(C)C)C(=O)NS(=O)(=O)C1CC1` [Compound 200, N-((3R,5S)-1-((S)-2-tert-butyl-4-(4,4-difluoropiperidin-1-yl)-4-oxobutanoyl)-5-((1R,2S)-1-(cyclopropylsulfonyl-carbamoyl)-2-vinylcyclopropyl-carbamoyl)pyrrolidin-3-yl)-2-phenylquinoline-4-carboxamide], the EC50 is < 1 µM.

Consider `C=C[C@@H]1C[C@]1(NC(=O)[C@@H]1C[C@@H](Oc2cc(-c3ccccc3)nc3cc(OC)ccc23)CN1C(=O)[C@@H](CC(=O)N1CCCC[C@H]1C(=O)Nc1nccs1)C(C)(C)C)C(=O)NS(=O)(=O)C1CC1` [Compound 211, (2S)-1-((3S)-3-((2S,4R)-2-((1R)-1-(cyclopropyl-sulfonylcarbamoyl)-2-vinylcyclopropyl-carbamoyl)-4-(7-methoxy-2-phenylquinolin-4-yloxy)pyrrolidine-1-carbonyl)-4,4-dimethylpentanoyl)-N-(thiazol-2-yl)piperidine-2-carboxamide], for which the half-maximal effective concentration (EC50) was < 1 µM.

Turning to `C=C[C@@H]1C[C@]1(NC(=O)[C@@H]1C[C@@H](N(Cc2ccccn2)C(=O)n2c3ccccc3c3ccccc32)CN1C(=O)[C@@H](CC(=O)N1CCC(F)(F)C1)C(C)(C)C)C(=O)NS(=O)(=O)C1CC1` [Compound 193, N-((3R,5S)-1-((S)-2-tert-butyl-4-(3,3-difluoropyrrolidin-1-yl)-4-oxobutanoyl)-5-((1R)-1-(cyclopropylsulfonyl-carbamoyl)-2-vinylcyclopropyl-carbamoyl)pyrrolidin-3-yl)-N-(pyridin-2-ylmethyl)-9H-carbazole-9-carboxamide], the 50% effective concentration (EC50) is < 1 µM.

On to `C=C[C@@H]1C[C@]1(NC(=O)[C@@H]1C[C@@H](Oc2nc3ccccc3nc2-c2ccccc2)CN1C(=O)[C@@H](CC(=O)N1CCCCC1)C(C)(C)C)C(=O)NS(=O)(=O)C1CC1` [Compound 133, (2S,4R)-1-((S)-2-tert-butyl-4-oxo-4-(piperidin-1-yl)butanoyl)-N-((1R,2S)-1-(cyclo-propylsulfonyl-carbamoyl)-2-vinyl-cyclopropyl)-4-(3-phenylquinoxalin-2-yloxy)pyrrolidine-2-carboxamide], for which the concentration for a half-maximal effect (EC50) lay within 1 to 10 µM.

Regarding `C=C[C@@H]1C[C@]1(NC(=O)[C@@H]1C[C@@H](Oc2cc(-c3ccccc3)nc3cc(OC)ccc23)CN1C(=O)[C@@H](CC(=O)N1CCC(F)CC1)C(C)(C)C)C(=O)NS(=O)(=O)C1CC1` [Compound 82, (2S,4R)-1-((S)-2-tert-butyl-4-(4-fluoropiperidin-1-yl)-4-oxobutanoyl)-N-((1R,2S)-1-(cyclopropyl-sulfonylcarbamoyl)-2-vinylcyclopropyl)-4-(7-methoxy-2-phenylquinolin-4-yloxy)pyrrolidine-2-carboxamide], the EC50 is < 1 µM.

For `C=C[C@@H]1C[C@]1(NC(=O)[C@@H]1C[C@@H](Oc2cc(-c3csc(N(C)C)n3)nc3cc(OC)ccc23)CN1C(=O)[C@@H](CC(=O)N1CCOCC1)C(C)(C)C)C(=O)NS(=O)(=O)C1CC1` [Compound 138, (2S,4R)-1-((S)-2-tert-butyl-4-morpholino-4-oxobutanoyl)-N-((1R,2S)-1-(cyclo-propylsulfonyl-carbamoyl)-2-vinyl-cyclopropyl)-4-(2-(2-(dimethylamino)thiazol-4-yl)-7-methoxyquinolin-4-yloxy)pyrrolidine-2-carboxamide], the 50% effective concentration (EC50) is < 1 µM.

For `C=C[C@@H]1C[C@]1(NC(=O)[C@@H]1C[C@@H](Oc2cc(-c3ccccc3)nc3cc(OC)ccc23)CN1C(=O)[C@@H](CC(=O)N1CCC(C(F)(F)F)CC1)C(C)(C)C)C(=O)NS(=O)(=O)C1CC1` [Compound 80, (2S,4R)-1-((S)-2-tert-butyl-4-oxo-4-(4-(trifluoro-methyl)piperidin-1-yl)butanoyl)-N-((1R,2S)-1-(cyclopropyl-sulfonylcarbamoyl)-2-vinylcyclopropyl)-4-(7-methoxy-2-phenylquinolin-4-yloxy)pyrrolidine-2-carboxamide], the EC50 was < 1 µM.

Turning to `C=C[C@@H]1C[C@@]1(NC(=O)[C@@H]1C[C@@H](Oc2cc(-c3ccccc3)nc3cc(OC)ccc23)CN1C(=O)[C@@H](CC(=O)N1CCCCC1)C(C)(C)C)C(=O)NS(=O)(=O)C1CC1` [Compound 38, (2S,4R)-1-((S)-2-tert-butyl-4-oxo-4-(piperidin-1-yl)butanoyl)-N-((1S,2S)-1-(cyclopropylsulfonyl-carbamoyl)-2-vinylcyclopropyl)-4-(7-methoxy-2-phenylquinolin-4-yloxy)pyrrolidine-2-carboxamide], the half-maximal effective concentration (EC50) is < 1 µM.

In the case of `C=C[C@@H]1C[C@]1(NC(=O)[C@@H]1C[C@@H](Oc2cc(-c3ccccc3)nc3cc(OC)ccc23)CN1C(=O)[C@@H](CC(=O)N1CCCCC1)C(C)(C)C)C(=O)NS(=O)(=O)C1(C)CC1` [Compound 106, (2S,4R)-1-((S)-2-tert-butyl-4-oxo-4-(piperidin-1-yl)butanoyl)-4-(7-methoxy-2-phenylquinolin-4-yloxy)-N-((1R,2S)-1-(1-methylcyclopropyl-sulfonylcarbamoyl)-2-vinylcyclo-propyl)pyrrolidine-2-carboxamide], the concentration for a half-maximal effect (EC50) was < 1 µM.

For the compound `C=CC1CC1(NC(=O)C1C[C@@H](Oc2cc(-c3ccccc3)nc3cc(OC)ccc23)CN1C(=O)[C@H](CC(=O)N1CCCCC1)CC(C)C)C(=O)NS(=O)(=O)C1CC1` (stereo partly drawn) [Compound 51, (4R)-N-(1-(cyclopropyl-sulfonylcarbamoyl)-2-vinylcyclopropyl)-4-(7-methoxy-2-phenylquinolin-4-yloxy)-1-((S)-4-methyl-2-(2-oxo-2-(piperidin-1-yl)ethyl)pentano-yl)pyrrolidine-2-carboxamide], the EC50 lay in the range of 1 to 10 µM.

`C=C[C@@H]1C[C@]1(NC(=O)[C@@H]1C[C@@H](Oc2cc(-c3ccccn3)nc3c(Cl)c(OC)ccc23)CN1C(=O)[C@@H](CC(=O)N1CCOCC1)C(C)(C)C)C(=O)NS(=O)(=O)C1CC1` [Compound 180, (2S,4R)-1-((S)-2-tert-butyl-4-morpholino-4-oxobutanoyl)-4-(8-chloro-7-methoxy-2-(pyridin-2-yl)quinolin-4-yloxy)-N-((1R,2S)-1-(cyclopropyl-sulfonylcarbamoyl)-2-vinyl-cyclopropyl)pyr-rolidine-2-carboxamide]: the 50% effective concentration (EC50) is < 1 µM.

Take `C=C[C@@H]1C[C@]1(NC(=O)[C@@H]1C[C@@H](Oc2cc(-c3ccccc3)nc3cc(OC)ccc23)CN1C(=O)[C@@H](CC(=O)N1CCCCC1)C(C)(C)C)C(=O)NS(=O)(=O)C(C)CC` (stereo partly drawn) [Compound 135, (2S,4R)-1-((S)-2-tert-butyl-4-oxo-4-(piperidin-1-yl)butanoyl)-N-((1R,2S)-1-(sec-butylsulfonyl-carbamoyl)-2-vinylcyclopropyl)-4-(7-methoxy-2-phenylquinolin-4-yloxy)pyrrolidine-2-carboxamide]: the EC50 was < 1 µM.

As to `C=C[C@@H]1C[C@]1(NC(=O)[C@@H]1C[C@@H](Oc2cc(-c3ccccn3)nc3cc(OC)ccc23)CN1C(=O)[C@@H](CC(=O)N1CCC(C(F)(F)F)CC1)C(C)(C)C)C(=O)NS(=O)(=O)C1CC1` [Compound 215, (2S,4R)-1-((S)-2-tert-butyl-4-oxo-4-(4-(trifluoro-methyl)piperidin-1-yl)butanoyl)-N-((1R)-1-(cyclopropyl-sulfonylcarbamoyl)-2-vinylcyclopropyl)-4-(7-methoxy-2-(pyridin-2-yl)quinolin-4-yloxy)pyrrolidine-2-carboxamide], the EC50 is < 1 µM.

Turning to `C=CC1CC1(NC(=O)C1C[C@@H](Oc2cc(-c3ccccc3)nc3cc(OC)ccc23)CN1C(=O)[C@@H](CC(=O)N1CCCCC1)Cc1ccccc1)C(=O)NS(=O)(=O)C1CC1` (stereo partly drawn) [Compound 52, (4R)-1-((R)-2-benzyl-4-oxo-4-(piperidin-1-yl)butanoyl)-N-(1-(cyclopropyl-sulfonylcarbamoyl)-2-vinylcyclopropyl)-4-(7-methoxy-2-phenylquinolin-4-yloxy)pyrrolidine-2-carboxamide], the half-maximal effective concentration (EC50) was < 1 µM.

As to `C=C[C@@H]1C[C@]1(NC(=O)[C@@H]1C[C@@H](NC(=O)c2cc(-c3ccccc3)nc3ccccc23)CN1C(=O)[C@@H](CC(=O)N1CCC(F)CC1)C(C)(C)C)C(=O)NS(=O)(=O)C1CC1` [Compound 205, N-((3R,5S)-1-((S)-2-tert-butyl-4-(4-fluoropiperidin-1-yl)-4-oxobutanoyl)-5-((1R,2S)-1-(cyclopropylsulfonyl-carbamoyl)-2-vinyl-cyclopropyl-carbamoyl)pyrrolidin-3-yl)-2-phenylquinoline-4-carboxamide], the EC50 was < 1 µM.

For `C=C[C@@H]1C[C@]1(NC(=O)[C@@H]1C[C@@H](Oc2nccc3c(Cl)c(OC)ccc23)CN1C(=O)[C@@H](CC(=O)N1CCCC(F)(F)C1)C(C)(C)C)C(=O)NS(=O)(=O)C1CC1` [Compound 247, (2S,4R)-1-((S)-2-tert-butyl-4-(3,3-difluoropiperidin-1-yl)-4-oxobutanoyl)-4-(5-chloro-6-methoxyisoquinolin-1-yloxy)-N-((2S)-1-(cyclopropyl-sulfonylcarbamoyl)-2-vinylcyclo-propyl)pyrrolidine-2-carboxamide], the concentration giving a half-maximal response (EC50) was < 1 µM.

For the compound `CC[C@@H](NC(=O)[C@@H]1C[C@@H](Oc2cc(-c3ccccc3)nc3cc(OC)ccc23)CN1C(=O)[C@@H](CC(=O)N1CCCCC1)C(C)(C)C)C(=O)NS(=O)(=O)C1CC1` [Compound 116, (2S,4R)-1-((S)-2-tert-butyl-4-oxo-4-(piperidin-1-yl)butanoyl)-N-((R)-1-(cyclopropanesulfon-amido)-1-oxobutan-2-yl)-4-(7-methoxy-2-phenylquinolin-4-yloxy)pyrrolidine-2-carboxamide], the EC50 lay within 1 to 10 µM.

The assay is the same for the next values; noted with them: Hepatitis C virus, Huh-7.
With `C=C[C@@H]1C[C@@]1(NC(=O)[C@@H]1C[C@@H](Oc2cc(-c3ccccc3)nc3cc(OC)ccc23)CN1C(=O)[C@@H](CC(=O)N1CCCCC1)C(C)(C)C)C(=O)NS(=O)(=O)C1CC1` [Compound 38, (2S,4R)-1-((S)-2-tert-butyl-4-oxo-4-(piperidin-1-yl)butanoyl)-N-((1S,2S)-1-(cyclopropylsulfonyl-carbamoyl)-2-vinylcyclopropyl)-4-(7-methoxy-2-phenylquinolin-4-yloxy)pyrrolidine-2-carboxamide], the EC50 was ≤ 10 µM.
